# In ChEMBL document CHEMBL3994638, “The juxtamembrane region of TrkA kinase is critical for inhibitor selectivity” (Bioorg Med Chem Lett, 2017):
# Assays:
# [1] = molecular target: T1, High affinity nerve growth factor receptor (Homo sapiens, UniProt P04629); assay: Inhibition of juxtamembrane region containing recombinant human N-terminal His6-tagged/GST-tagged TrkA (473 to 796 residues) expressed in baculovirus infected Hi5 cells using TK substrate after 60 mins by HTRF assay
# [2] = molecular target: T1, High affinity nerve growth factor receptor; assay: Inhibition of juxtamembrane region deficient recombinant human N-terminal His6-tagged/GST-tagged TrkA (498 to 796 residues) expressed in baculovirus infected Hi5 cells using TK substrate after 60 mins by HTRF assay
# [3] = molecular target: T1, High affinity nerve growth factor receptor; assay: Inhibition of recombinant human TrkA expressed in DHFR deficient CHO cells assessed as inhibition of human beta-nerve growth factor-induced calcium influx by Fluo-4 AM dye based assay; type: cell-based
# [4] = molecular target: BDNF/NT-3 growth factors receptor (Homo sapiens, UniProt Q16620); assay: Inhibition of recombinant human TrkB expressed in DHFR deficient CHO cells assessed as inhibition of human brain-derived neurotrophic factor-induced calcium influx by Fluo-4 AM dye based assay; type: cell-based
# Chain of BDNF/NT-3 growth factors receptor (Q16620 whole entry): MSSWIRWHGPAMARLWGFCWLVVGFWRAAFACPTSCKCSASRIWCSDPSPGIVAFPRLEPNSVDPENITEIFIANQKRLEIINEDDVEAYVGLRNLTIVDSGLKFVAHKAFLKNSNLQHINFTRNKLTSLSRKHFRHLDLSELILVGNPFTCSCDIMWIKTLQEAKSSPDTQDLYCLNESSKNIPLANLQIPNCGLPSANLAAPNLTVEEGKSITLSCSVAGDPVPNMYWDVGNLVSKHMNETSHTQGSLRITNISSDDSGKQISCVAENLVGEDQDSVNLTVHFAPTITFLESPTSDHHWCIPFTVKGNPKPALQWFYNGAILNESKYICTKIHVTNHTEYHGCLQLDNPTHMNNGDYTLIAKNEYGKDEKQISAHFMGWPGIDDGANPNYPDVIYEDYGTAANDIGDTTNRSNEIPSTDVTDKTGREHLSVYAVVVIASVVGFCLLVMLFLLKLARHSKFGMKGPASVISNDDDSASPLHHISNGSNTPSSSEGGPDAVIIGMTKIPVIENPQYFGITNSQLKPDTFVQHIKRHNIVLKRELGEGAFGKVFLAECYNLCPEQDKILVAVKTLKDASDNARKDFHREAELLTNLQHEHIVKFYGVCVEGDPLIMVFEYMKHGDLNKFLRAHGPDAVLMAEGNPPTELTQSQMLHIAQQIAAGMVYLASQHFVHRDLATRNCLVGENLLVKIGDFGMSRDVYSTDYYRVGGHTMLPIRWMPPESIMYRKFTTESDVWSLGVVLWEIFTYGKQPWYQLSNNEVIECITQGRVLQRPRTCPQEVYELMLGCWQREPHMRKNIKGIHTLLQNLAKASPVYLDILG
# [5] = molecular target: NT-3 growth factor receptor (Homo sapiens, UniProt Q16288); assay: Inhibition of recombinant human TrkC expressed in DHFR deficient CHO cells assessed as inhibition of human neurotrophin-3-induced calcium influx by Fluo-4 AM dye based assay; type: cell-based
# Chain of NT-3 growth factor receptor (Q16288 whole entry): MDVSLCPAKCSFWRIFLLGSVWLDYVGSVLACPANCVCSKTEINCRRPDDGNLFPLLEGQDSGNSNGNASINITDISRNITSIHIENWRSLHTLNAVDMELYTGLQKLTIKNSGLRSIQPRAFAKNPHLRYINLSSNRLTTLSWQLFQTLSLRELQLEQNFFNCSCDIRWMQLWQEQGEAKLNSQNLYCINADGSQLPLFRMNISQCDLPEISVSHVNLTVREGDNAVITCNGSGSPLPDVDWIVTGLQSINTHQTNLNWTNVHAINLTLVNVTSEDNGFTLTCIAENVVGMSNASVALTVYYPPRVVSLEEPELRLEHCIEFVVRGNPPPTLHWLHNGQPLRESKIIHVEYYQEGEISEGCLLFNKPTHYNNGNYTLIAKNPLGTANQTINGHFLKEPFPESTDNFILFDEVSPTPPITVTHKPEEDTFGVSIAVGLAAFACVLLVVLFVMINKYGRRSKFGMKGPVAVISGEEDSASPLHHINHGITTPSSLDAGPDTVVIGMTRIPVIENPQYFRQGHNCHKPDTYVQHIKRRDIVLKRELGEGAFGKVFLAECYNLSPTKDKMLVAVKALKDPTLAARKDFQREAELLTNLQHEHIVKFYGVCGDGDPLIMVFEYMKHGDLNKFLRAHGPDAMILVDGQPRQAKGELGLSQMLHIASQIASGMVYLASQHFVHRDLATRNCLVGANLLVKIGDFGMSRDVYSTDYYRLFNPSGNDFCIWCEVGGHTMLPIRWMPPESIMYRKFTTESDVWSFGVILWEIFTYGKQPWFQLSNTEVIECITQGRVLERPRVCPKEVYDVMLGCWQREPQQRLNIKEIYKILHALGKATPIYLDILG
# T1 sequence (P04629 whole entry, the tested form may be a part): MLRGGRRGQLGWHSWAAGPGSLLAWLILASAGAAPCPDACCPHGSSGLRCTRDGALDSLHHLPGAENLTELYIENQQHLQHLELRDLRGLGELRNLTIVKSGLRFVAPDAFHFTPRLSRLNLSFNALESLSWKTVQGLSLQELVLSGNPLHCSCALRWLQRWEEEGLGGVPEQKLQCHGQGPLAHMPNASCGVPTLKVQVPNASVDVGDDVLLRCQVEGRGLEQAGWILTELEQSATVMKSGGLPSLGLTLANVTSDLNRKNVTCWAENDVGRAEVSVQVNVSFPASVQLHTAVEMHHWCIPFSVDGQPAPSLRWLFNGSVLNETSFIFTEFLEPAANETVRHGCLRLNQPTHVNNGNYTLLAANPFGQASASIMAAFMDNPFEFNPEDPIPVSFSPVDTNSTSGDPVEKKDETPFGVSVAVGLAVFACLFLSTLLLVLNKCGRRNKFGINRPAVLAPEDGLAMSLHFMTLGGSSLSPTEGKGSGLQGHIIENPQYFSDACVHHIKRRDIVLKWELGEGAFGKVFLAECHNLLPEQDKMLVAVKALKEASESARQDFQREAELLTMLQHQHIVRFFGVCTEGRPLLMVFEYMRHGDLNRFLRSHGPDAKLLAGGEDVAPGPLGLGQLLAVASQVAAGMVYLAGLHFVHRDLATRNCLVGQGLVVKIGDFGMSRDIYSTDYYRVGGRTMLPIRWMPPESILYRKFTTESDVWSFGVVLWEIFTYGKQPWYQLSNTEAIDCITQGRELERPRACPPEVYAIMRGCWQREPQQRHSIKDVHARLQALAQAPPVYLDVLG
IC50 [1] [nM],IC50 [2] [nM],IC50 [3] [nM],IC50 [4] [nM],IC50 [5] [nM],Structure (SMILES)
6,37200,2.7,1300,2480,CCOc1nn(-c2ccccc2)c(NC(=O)N[C@@H]2CN(CCOC)C[C@H]2c2ccc(F)c(F)c2)c1C
–,–,–,6.8,7.2,CC(C)Oc1cc(Nc2nc(N[C@@H](C)c3ccc(F)cn3)ncc2Cl)n[nH]1
–,–,–,132,–,COc1cc(-c2cn(CC(=O)Nc3cc(C4CC4)nn3-c3ccccc3)nn2)ccc1-n1cnc(C)c1
